From patent US20210015098A1, “MOLECULES HAVING PESTICIDAL UTILITY, AND INTERMEDIATES, COMPOSITIONS, AND PROCESSES, RELATED THERETO” (DOW AGROSCIENCES LLC, priority 2018, published 2021)

Tests used:
[1] = system: Beet Armyworm (Spodoptera exigua, LAPHEG); assay: Bioassays on Beet Armyworm (BAW), 128-well diet tray assay; assay type: in vivo; conditions: Beet Armyworm, Table ABC Biological Results, read-out: BAW (rating)
Procedure: (§1) Certain molecules disclosed in this document were tested against BAW and CL using procedures described in the following examples. In the reporting of the results, the “BAW & CL Rating Table” was used (See Table Section).
Bioassays on BAW were conducted using a 128-well diet tray assay. One to five second instar BAW larvae were placed in each well (3 mL) of the diet tray that had been previously filled with 1 mL of artificial diet to which 50 μg/cm^2 of the test molecule (dissolved in 50 μL of 90:10 acetone-water mixture) had been applied (to each of eight wells) and then allowed to dry. Trays were covered with a clear self-adhesive cover, vented to allow gas exchange, and held at 25° C., 14:10 light-dark for five to seven days. Percent mortality was recorded for the larvae in each well; activity in the eight wells was then averaged. The results are indicated in the table entitled “Table ABC: Biological Results” (See Table Section).

[2] = system: Cabbage Looper (Trichoplusia ni, TRIPNI); assay: Bioassays on Cabbage Looper (CL), 128-well diet tray assay; assay type: in vivo; conditions: Cabbage Looper, Table ABC Biological Results, read-out: CL (rating)
Procedure: as §1
Bioassays on CL were conducted using a 128-well diet tray assay. One to five second instar CL larvae were placed in each well (3 mL) of the diet tray that had been previously filled with 1 mL of artificial diet to which 50 μg/cm^2 of the test molecule (dissolved in 50 μL of 90:10 acetone-water mixture) had been applied (to each of eight wells) and then allowed to dry. Trays were covered with a clear self-adhesive cover, vented to allow gas exchange, and held at 25° C., 14:10 light-dark for five to seven days. Percent mortality was recorded for the larvae in each well; activity in the eight wells was then averaged. The results are indicated in the table entitled “Table ABC: Biological Results” (See Table Section).

Structure (SMILES)	pest or weed control at 50 µg/cm2 [1] [%]	pest or weed control at 50 µg/cm2 [2] [%]
O=C(CSCC(F)(F)F)Nc1c(F)ccc(NC(=O)c2cc(NC(=O)[C@H]3[C@H](c4ccc(F)c(Cl)c4)C3(Cl)Cl)ccc2Cl)c1F [F12, 2-Chloro-5-((1R,3R)-2,2-dichloro-3-(3-chloro-4-fluorophenyl)cyclopropane-1-carboxamido)-N-(2,4-difluoro-3-(2-((2,2,2-trifluoroethyl)thio)acetamido)phenyl)benzamide]	50 to 100	50 to 100
O=C(CSc1ccc(F)cc1)Nc1c(F)ccc(NC(=O)c2cc(NC(=O)[C@H]3[C@H](c4ccc(F)c(C(F)(F)F)c4)C3(Cl)Cl)ccc2Cl)c1F [F4, 2-Chloro-5-((1R,3R)-2,2-dichloro-3-(4-fluoro-3-(trifluoromethyl)phenyl)cyclopropane-1-carboxamido)-N-(2,4-difluoro-3-(2-((4-fluorophenyl)thio)acetamido)phenyl)benzamide]	50 to 100	50 to 100
O=C(CSC(F)(F)F)Nc1c(F)ccc(NC(=O)c2cc(NC(=O)[C@H]3[C@H](c4cc(F)cc(C(F)(F)F)c4)C3(Cl)Cl)ccc2Cl)c1F [F49, 2-Chloro-5-((1R,3R)-2,2-dichloro-3-(3-fluoro-5-(trifluoromethyl)phenyl)cyclopropane-1-carboxamido)-N-(2,4-difluoro-3-(2-((trifluoromethyl)thio)acetamido)phenyl)benzamide]	50 to 100	50 to 100
O=C(CSc1ccncc1)Nc1c(F)ccc(NC(=O)c2cc(NC(=O)[C@H]3[C@H](c4ccc(F)c(C(F)(F)F)c4)C3(Cl)Cl)ccc2Cl)c1F [F2, 2-Chloro-5-((1R,3R)-2,2-dichloro-3-(4-fluoro-3-(trifluoromethyl)phenyl)cyclopropane-1-carboxamido)-N-(2,4-difluoro-3-(2-(pyridin-4-ylthio)acetamido)phenyl)benzamide]	50 to 100	50 to 100
CC(C(=O)Nc1c(F)ccc(NC(=O)c2cc(NC(=O)[C@H]3[C@H](c4ccc(F)c(Cl)c4)C3(Cl)Cl)ccc2Cl)c1F)S(=O)(=O)C(F)(F)F (stereo partly drawn) [F39, 2-Chloro-5-((1R,3R)-2,2-dichloro-3-(3-chloro-4-fluorophenyl)cyclopropane-1-carboxamido)-N-(2,4-difluoro-3-(2-((trif1uoromethyl)sulfonyl)propanamido)phenyl)benzamide]	50 to 100	50 to 100
O=C(CSC(F)(F)F)Nc1c(F)ccc(NC(=O)c2cc(NC(=O)[C@H]3[C@H](c4ccc(F)c(Cl)c4)C3(Cl)Cl)ccc2Cl)c1F [F14, 2-Chloro-5-((1R,3R)-2,2-dichloro-3-(3-chloro-4-fluorophenyl)cyclopropane-1-carboxamido)-N-(2,4-difluoro-3-(2-((trifluoromethyl)thio)acetamido)phenyl)benzamide]	50 to 100	50 to 100
O=C(CSC(F)(F)F)Nc1ccc(NC(=O)c2cc(NC(=O)[C@H]3[C@H](c4ccc(F)c(C(F)(F)F)c4)C3(Cl)Cl)ccc2Cl)c(F)c1 [F51, 2-Chloro-5-((1R,3R)-2,2-dichloro-3-(4-fluoro-3-(trifluoromethyl)phenyl)cyclopropane-1-carboxamido)-N-(2-fluoro-4-(2-((trifluoromethyl)thio)acetamido)phenyl)benzamide]	50 to 100	50 to 100
O=C(CS(=O)(=O)CC(F)(F)F)Nc1c(F)ccc(NC(=O)c2cc(NC(=O)[C@H]3[C@H](c4ccc(F)c(C(F)(F)F)c4)C3(Cl)Cl)ccc2Cl)c1F [F44, 2-Chloro-5-((1R,3R)-2,2-dichloro-3-(4-fluoro-3-(trifluoromethyl)phenyl)cyclopropane-1-carboxamido)-N-(2,4-difluoro-3-(2-((2,22-trifluoroethyl)sulfonyl)acetamido)phenyl)benzamide]	50 to 100	50 to 100
O=C(C[S+]([O-])C(F)(F)F)Nc1c(F)ccc(NC(=O)c2cc(NC(=O)[C@H]3[C@H](c4ccc(F)c(Cl)c4)C3(Cl)Cl)ccc2Cl)c1F (stereo partly drawn) [F28, 2-Chloro-5-((1R,3R)-2,2-dichloro-3-(3-chloro-4-fluorophenyl)cyclopropane-1-carboxamido)-N-(2,4-difluoro-3-(2-((trifluoromethyl)sulfinyl)acetamido)phenyl)benzamide]	50 to 100	50 to 100
CSCC(=O)Nc1ccc(NC(=O)c2cc(NC(=O)[C@H]3[C@H](c4ccc(F)c(C(F)(F)F)c4)C3(Cl)Cl)ccc2Cl)c(F)c1 [F50, 2-Chloro-5-((1R,3R)-2,2-dichloro-3-(4-fluoro-3-(trifluoromethyl)phenyl)cyclopropane-1-carboxamido)-N-(2-fluoro-4-(2-(methylthio)acetamido)phenyl)benzamide]	50 to 100	50 to 100
CC(C(=O)Nc1c(F)ccc(NC(=O)c2cc(NC(=O)[C@H]3[C@H](c4cc(Cl)c(Cl)c(Cl)c4)C3(Cl)Cl)ccc2Cl)c1F)S(=O)(=O)C(F)(F)F (stereo partly drawn) [F35, 2-Chloro-5-((1R,3R)-2,2-dichloro-3-(3,4,5-trichlorophenyl)cyclopropane-1-carboxamido)-N-(2,4-difluoro-3-(2-((trifluoromethyl)sulfonyl)propanamido)phenyl)benzamide]	50 to 100	50 to 100
O=C(C[S+]([O-])CC(F)(F)F)Nc1c(F)ccc(NC(=O)c2cc(NC(=O)[C@H]3[C@H](c4ccc(F)c(Cl)c4)C3(Cl)Cl)ccc2Cl)c1F (stereo partly drawn) [F31, 2-Chloro-5-((1R,3R)-2,2-dichloro-3-(3-chloro-4-fluorophenyl)cyclopropane-1-carboxamido)-N-(2,4-difluoro-3-(2-((2,2,2-trifluoroethyl)sulfinyl)acetamido)phenyl)benzamide]	50 to 100	50 to 100
O=C(CSC(F)(F)F)Nc1c(F)ccc(NC(=O)c2cc(NC(=O)[C@H]3[C@H](c4cccc(C(F)(F)F)c4)C3(Cl)Cl)ccc2Cl)c1F [F47, 2-Chloro-5-((1R,3R)-2,2-dichloro-3-(3-(trifluoromethyl)phenyl)cyclopropane-1-carboxamido)-N-(2,4-difluoro-3-(2-((trifluoromethyl)thio)acetamido)phenyl)benzamide]	50 to 100	50 to 100
O=C(CS(=O)(=O)C(F)(F)F)Nc1c(F)ccc(NC(=O)c2cc(NC(=O)[C@H]3[C@H](c4ccc(Cl)c(Cl)c4)C3(Cl)Cl)ccc2Cl)c1F [F38, 2-Chloro-5-((1R,3R)-2,2-dichloro-3-(3,4-dichlorophenyl)cyclopropane-1-carboxamido)-N-(2,4-difluoro-3-(2-((trifluoromethyl)sulfonyl)acetamido)phenyl)benzamide]	50 to 100	50 to 100
CC(SC(F)(F)F)C(=O)Nc1c(F)ccc(NC(=O)c2cc(NC(=O)[C@H]3[C@H](c4ccc(Cl)c(Cl)c4)C3(Cl)Cl)ccc2Cl)c1F (stereo partly drawn) [F10, 2-Chloro-5-((1R,3R)-2,2-dichloro-3-(3,4-dichlorophenyl)cyclopropane-1-carboxamido)-N-(2,4-difluoro-3-(2-((trifluoromethyl)thio)propanamido)phenyl)benzamide]	50 to 100	50 to 100
O=C(CS(=O)(=O)C(F)(F)F)Nc1c(F)ccc(NC(=O)c2cc(NC(=O)[C@H]3[C@H](c4cc(Cl)c(Cl)c(Cl)c4)C3(Cl)Cl)ccc2Cl)c1F [F36, 2-Chloro-5-((1R,3R)-2,2-dichloro-3-(3,4,5-trichlorophenyl)cyclopropane-1-carboxamido)-N-(2,4-difluoro-3-(2-((trifluoromethyl)sulfonyl)acetamido)phenyl)benzamide]	50 to 100	50 to 100
O=C(C[S+]([O-])CC(F)(F)F)Nc1c(F)ccc(NC(=O)c2cc(NC(=O)[C@H]3[C@H](c4ccc(Cl)c(Cl)c4)C3(Cl)Cl)ccc2Cl)c1F (stereo partly drawn) [F30, 2-chloro-5-((R,3R)-2,2-dichloro-3-(3,4-dichlorophenyl)cyclopropane-1-carboxamido)-N-(2,4-difluoro-3-(2-((2,2,2-trifluoroethyl)sulfinyl)acetamido)phenyl)benzamide]	50 to 100	50 to 100
O=C(CS(=O)(=O)CC(F)(F)F)Nc1c(F)ccc(NC(=O)c2cc(NC(=O)[C@H]3[C@H](c4cc(Cl)c(Cl)c(Cl)c4)C3(Cl)Cl)ccc2Cl)c1F [F41, 2-Chloro-5-((1R,3R)-2,2-dichloro-3-(3,4,5-trichlorophenyl)cyclopropane-1-carboxamido)-N-(2,4-difluoro-3-(2-((2,2,2-trifluoroethyl)sulfonyl)acetamido)phenyl)benzamide]	50 to 100	50 to 100
